# Source: PubChem BioAssay AID1918936 (Molecular Pharmacology Branch, DTP, NCI, 2023)
# “And” between values parts separate entries of the source, which are not always exact repeats. Equal values may be shown once.
# System: 349418-098-R-PDC complex spheroid viability
# Assay: Anticancer human tumor 349418-098-R-PDC patient-derived lung adenocarcinoma cell line growth inhibition
# Conditions: for viability, T/C: stronger effect = lower value
# Outline: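 Multicellular complex spheroids of tumor cells with human endothelial cells (HUVEC) and mesenchymal stem cells; the LSD1 inhibitor iadademstat was combined with standard-of-care or investigational agents. Top concentration at or near clinical Cmax, half-log dilutions; final DMSO ≤0.25%.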
# [1] = curve of first compound, second compound 0.1 µM
# [2] = curve of first compound, second compound 0.316 µM
# [3] = curve of first compound, second compound 1 µM
# [4] = curve of first compound, second compound 3.16 µM
# [5] = curve of first compound, second compound 10 µM
# [6] = second compound 0.1 µM, first compound 0.0316 µM
# [7] = second compound 0.1 µM, first compound 0.1 µM
# [8] = second compound 0.1 µM, first compound 0.316 µM
# [9] = second compound 0.1 µM, first compound 1 µM
# [10] = second compound 0.1 µM, first compound 3.16 µM
# [11] = second compound 0.1 µM, first compound 10 µM
# [12] = second compound 0.316 µM, first compound 0.0316 µM
# [13] = second compound 0.316 µM, first compound 0.1 µM
# [14] = second compound 0.316 µM, first compound 0.316 µM
# [15] = second compound 0.316 µM, first compound 1 µM
# [16] = second compound 0.316 µM, first compound 3.16 µM
# [17] = second compound 0.316 µM, first compound 10 µM
# [18] = second compound 1 µM, first compound 0.0316 µM
# [19] = second compound 1 µM, first compound 0.1 µM
# [20] = second compound 1 µM, first compound 0.316 µM
# [21] = second compound 1 µM, first compound 1 µM
# [22] = second compound 1 µM, first compound 3.16 µM
# [23] = second compound 1 µM, first compound 10 µM
# [24] = second compound 3.16 µM, first compound 0.0316 µM
# [25] = second compound 3.16 µM, first compound 0.1 µM
# [26] = second compound 3.16 µM, first compound 0.316 µM
# [27] = second compound 3.16 µM, first compound 1 µM
# [28] = second compound 3.16 µM, first compound 3.16 µM
# [29] = second compound 3.16 µM, first compound 10 µM
# [30] = second compound 10 µM, first compound 0.0316 µM
# [31] = second compound 10 µM, first compound 0.1 µM
# [32] = second compound 10 µM, first compound 0.316 µM
# [33] = second compound 10 µM, first compound 1 µM
# [34] = second compound 10 µM, first compound 3.16 µM
# [35] = second compound 10 µM, first compound 10 µM
# 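Note: spheroids exposed to agents for seven days before readout.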
# 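Throughout, for viability, T/C: 100% = DMSO vehicle control wells.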
structure (smiles),measurement,setting,value
CC(C)c1c(-c2ccccc2)nc2c(C#N)c[nH]n2c1=O + NC1CCC(NC2CC2c2ccccc2)CC1,IC50,[1],> 10000 nM
same,IC50,[2],> 10000 nM
same,IC50,[3],> 10000 nM
same,IC50,[4],> 10000 nM
same,IC50,[5],> 10000 nM
same,"viability, T/C",[6],108%
same,"viability, T/C",[7],112%
same,"viability, T/C",[8],93.7%
same,"viability, T/C",[9],105%
same,"viability, T/C",[10],104%
same,"viability, T/C",[11],88.1%
same,"viability, T/C",[12],108%
same,"viability, T/C",[13],110%
same,"viability, T/C",[14],113%
same,"viability, T/C",[15],104%
same,"viability, T/C",[16],101%
same,"viability, T/C",[17],98.8%
same,"viability, T/C",[18],104%
same,"viability, T/C",[19],113%
same,"viability, T/C",[20],108%
same,"viability, T/C",[21],100%
same,"viability, T/C",[22],104%
same,"viability, T/C",[23],93.8%
same,"viability, T/C",[24],96.4%
same,"viability, T/C",[25],92.5%
same,"viability, T/C",[26],113%
same,"viability, T/C",[27],108%
same,"viability, T/C",[28],102%
same,"viability, T/C",[29],87.3%
same,"viability, T/C",[30],101%
same,"viability, T/C",[31],84.1%
same,"viability, T/C",[32],108%
same,"viability, T/C",[33],93.6%
same,"viability, T/C",[34],86.4%
same,"viability, T/C",[35],78.7%
COc1cc(C2c3cc4c(cc3C(OC3OC5COC(C)OC5C(O)C3O)C3COC(=O)C23)OCO4)cc(OC)c1O (stereo not drawn),"viability, T/C",compound 0.00949 µM,93.8% and 95.9%
same,"viability, T/C",compound 0.03 µM,85.4% and 73.6%
same,"viability, T/C",compound 0.0949 µM,48.8% and 24.1%
same,"viability, T/C",compound 0.3 µM,13.5% and 6.74%
same,"viability, T/C",compound 0.949 µM,7.1% and 4.19%
same,"viability, T/C",compound 3 µM,4.85% and 3.34%
same,IC50,curve of compound,91 nM and 52 nM
CC[C@@]1(O)C(=O)OCc2c1cc1n(c2=O)Cc2cc3c(CN(C)C)c(O)ccc3nc2-1,"viability, T/C",compound 0.000316 µM,105% and 95.3%
same,"viability, T/C",compound 0.001 µM,84.7% and 94.4%
same,"viability, T/C",compound 0.00316 µM,32.5% and 43.5%
same,"viability, T/C",compound 0.01 µM,10.2% and 9.41%
same,"viability, T/C",compound 0.0316 µM,6.03% and 5.47%
same,"viability, T/C",compound 0.1 µM,3.25% and 3.14%
same,IC50,curve of compound,2.16 nM and 2.74 nM
O=C(C=Cn1cnc(-c2cc(C(F)(F)F)cc(C(F)(F)F)c2)n1)NNc1cnccn1,"viability, T/C",compound 0.00316 µM,19.9% and 22.1%
same,"viability, T/C",compound 0.01 µM,8.55% and 22.4%
same,"viability, T/C",compound 0.0316 µM,6.32% and 7.96%
same,"viability, T/C",compound 0.1 µM,3.87% and 4.72%
same,"viability, T/C",compound 0.316 µM,2.92% and 3.05%
same,"viability, T/C",compound 1 µM,2.37% and 2.41%
same,IC50,curve of compound,< 3.16 nM
O=C(C=Cn1cnc(-c2cc(C(F)(F)F)cc(C(F)(F)F)c2)n1)NNc1cnccn1 + NC1CCC(NC2CC2c2ccccc2)CC1,IC50,[1],< 3.16 nM
same,IC50,[2],< 3.16 nM
same,IC50,[3],< 3.16 nM
same,IC50,[4],< 3.16 nM
same,IC50,[5],< 3.16 nM
same,"viability, T/C","second compound 0.1 µM, first compound 0.00316 µM",19.9%
same,"viability, T/C","second compound 0.1 µM, first compound 0.01 µM",8.25%
same,"viability, T/C",[6],7.06%
same,"viability, T/C",[7],4.2%
same,"viability, T/C",[8],3.1%
same,"viability, T/C",[9],2.53%
same,"viability, T/C","second compound 0.316 µM, first compound 0.00316 µM",16.7%
same,"viability, T/C","second compound 0.316 µM, first compound 0.01 µM",8.83%
same,"viability, T/C",[12],6.85%
same,"viability, T/C",[13],4.29%
same,"viability, T/C",[14],3.65%
same,"viability, T/C",[15],2.34%
same,"viability, T/C","second compound 1 µM, first compound 0.00316 µM",22.8%
same,"viability, T/C","second compound 1 µM, first compound 0.01 µM",8.34%
same,"viability, T/C",[18],6.23%
same,"viability, T/C",[19],4.78%
same,"viability, T/C",[20],2.92%
same,"viability, T/C",[21],2.31%
same,"viability, T/C","second compound 3.16 µM, first compound 0.00316 µM",21%
same,"viability, T/C","second compound 3.16 µM, first compound 0.01 µM",8.38%
same,"viability, T/C",[24],7.11%
same,"viability, T/C",[25],4.9%
same,"viability, T/C",[26],3.12%
same,"viability, T/C",[27],2.6%
same,"viability, T/C","second compound 10 µM, first compound 0.00316 µM",17.9%
same,"viability, T/C","second compound 10 µM, first compound 0.01 µM",9.32%
same,"viability, T/C",[30],6.65%
same,"viability, T/C",[31],4.32%
same,"viability, T/C",[32],3.64%
same,"viability, T/C",[33],2.6%
Nc1ncn(C2CC(O)C(CO)O2)c(=O)n1 (stereo not drawn),"viability, T/C",compound 0.00316 µM,88.2% and 96.1%
same,"viability, T/C",compound 0.01 µM,59% and 91.5%
same,"viability, T/C",compound 0.0316 µM,47.1% and 75.4%
same,"viability, T/C",compound 0.1 µM,32.5% and 45.5%
same,"viability, T/C",compound 0.316 µM,27.8% and 37.1%
same,"viability, T/C",compound 1 µM,23.9% and 27.6%
same,IC50,curve of compound,21.3 nM and 89.3 nM
O=C(c1cc(Cc2n[nH]c(=O)c3ccccc23)ccc1F)N1CCN(C(=O)C2CC2)CC1 + NC1CC1c1ccc(-c2cccc(O)c2)cc1,IC50,[1],8910 nM
same,IC50,[2],8220 nM
same,IC50,[3],8040 nM
same,IC50,[4],> 10000 nM
same,IC50,[5],3190 nM
same,"viability, T/C",[6],106%
same,"viability, T/C",[7],108%
same,"viability, T/C",[8],99.3%
same,"viability, T/C",[9],99.3%
same,"viability, T/C",[10],86%
same,"viability, T/C",[11],45.5%
same,"viability, T/C",[12],111%
same,"viability, T/C",[13],105%
same,"viability, T/C",[14],103%
same,"viability, T/C",[15],98.5%
same,"viability, T/C",[16],77.6%
same,"viability, T/C",[17],43.9%
same,"viability, T/C",[18],116%
same,"viability, T/C",[19],106%
same,"viability, T/C",[20],105%
same,"viability, T/C",[21],104%
same,"viability, T/C",[22],69.1%
same,"viability, T/C",[23],45.5%
same,"viability, T/C",[24],116%
same,"viability, T/C",[25],111%
same,"viability, T/C",[26],101%
same,"viability, T/C",[27],105%
same,"viability, T/C",[28],75.5%
same,"viability, T/C",[29],52.3%
same,"viability, T/C",[30],97.1%
same,"viability, T/C",[31],90.3%
same,"viability, T/C",[32],75.2%
same,"viability, T/C",[33],67%
same,"viability, T/C",[34],49.9%
same,"viability, T/C",[35],33.6%
NS(=O)(=O)OCC1CC(n2ccc3c(NC4CCc5ccccc54)ncnc32)CC1O (stereo not drawn) + NC1CCC(NC2CC2c2ccccc2)CC1,IC50,[1],67.2 nM
same,IC50,[2],86.6 nM
same,IC50,[3],93 nM
same,IC50,[4],82.3 nM
same,IC50,[5],66.6 nM
same,"viability, T/C","second compound 0.1 µM, first compound 0.00949 µM",99.3%
same,"viability, T/C","second compound 0.1 µM, first compound 0.03 µM",94.8%
same,"viability, T/C","second compound 0.1 µM, first compound 0.0949 µM",30.6%
same,"viability, T/C","second compound 0.1 µM, first compound 0.3 µM",15.2%
same,"viability, T/C","second compound 0.1 µM, first compound 0.949 µM",8.16%
same,"viability, T/C","second compound 0.1 µM, first compound 3 µM",4.47%
same,"viability, T/C","second compound 0.316 µM, first compound 0.00949 µM",118%
same,"viability, T/C","second compound 0.316 µM, first compound 0.03 µM",100%
same,"viability, T/C","second compound 0.316 µM, first compound 0.0949 µM",44.5%
same,"viability, T/C","second compound 0.316 µM, first compound 0.3 µM",16.1%
same,"viability, T/C","second compound 0.316 µM, first compound 0.949 µM",7.56%
same,"viability, T/C","second compound 0.316 µM, first compound 3 µM",4.71%
same,"viability, T/C","second compound 1 µM, first compound 0.00949 µM",111%
same,"viability, T/C","second compound 1 µM, first compound 0.03 µM",104%
same,"viability, T/C","second compound 1 µM, first compound 0.0949 µM",47.1%
same,"viability, T/C","second compound 1 µM, first compound 0.3 µM",17.1%
same,"viability, T/C","second compound 1 µM, first compound 0.949 µM",6.19%
same,"viability, T/C","second compound 1 µM, first compound 3 µM",4.32%
same,"viability, T/C","second compound 3.16 µM, first compound 0.00949 µM",108%
same,"viability, T/C","second compound 3.16 µM, first compound 0.03 µM",103%
same,"viability, T/C","second compound 3.16 µM, first compound 0.0949 µM",40.6%
same,"viability, T/C","second compound 3.16 µM, first compound 0.3 µM",22.6%
same,"viability, T/C","second compound 3.16 µM, first compound 0.949 µM",7.16%
same,"viability, T/C","second compound 3.16 µM, first compound 3 µM",4.58%
same,"viability, T/C","second compound 10 µM, first compound 0.00949 µM",84.9%
same,"viability, T/C","second compound 10 µM, first compound 0.03 µM",88.7%
same,"viability, T/C","second compound 10 µM, first compound 0.0949 µM",33.6%
same,"viability, T/C","second compound 10 µM, first compound 0.3 µM",16.6%
same,"viability, T/C","second compound 10 µM, first compound 0.949 µM",6.64%
same,"viability, T/C","second compound 10 µM, first compound 3 µM",4.12%
